These results are taken from article PMC8746797, “Design, Synthesis, and Structure–Activity Relationship Study of Potent MAPK11 Inhibitors” (Molecules, 2021).

Broadly, the IC50 is the concentration needed to halve the response being measured. As a reminder, the melting point is the temperature, or range, at which the solid turns liquid.

Data set [1] relates to MAPK14. Conditions: cited from earlier work.
For data set [2], the target named is MAPK11 (Homo sapiens, UniProt Q15759). As to the kind of experiment: Enzyme assay against MAPK11 (mobility shift assay). It counts as biochemical. As to conditions: for IC50: mobility shift assay, mean ± SD of at least two independent determinations, read-out: MAPK11 Enzyme Inhibitory Activity IC50.
Protocol: The effect of the above synthesized inhibitors on MAPK11 kinase activity in vitro was assessed using mobility shift assay by ChemPartner. Following the kinase reaction, a part of the substrate was added to a phosphate group under the action of the kinase to yield a product. The substrate and the product have a difference of 3 charges, thereby allowing them to be separated and detected by capillary electrophoresis. […] Finally, the data was fitted to the XLFit Excel plug-in version 5.4.0.8 to calculate the IC50 value.

Read-outs that look alike come from different tables or passages of the source.

Sequence of MAPK11 (Q15759 whole entry): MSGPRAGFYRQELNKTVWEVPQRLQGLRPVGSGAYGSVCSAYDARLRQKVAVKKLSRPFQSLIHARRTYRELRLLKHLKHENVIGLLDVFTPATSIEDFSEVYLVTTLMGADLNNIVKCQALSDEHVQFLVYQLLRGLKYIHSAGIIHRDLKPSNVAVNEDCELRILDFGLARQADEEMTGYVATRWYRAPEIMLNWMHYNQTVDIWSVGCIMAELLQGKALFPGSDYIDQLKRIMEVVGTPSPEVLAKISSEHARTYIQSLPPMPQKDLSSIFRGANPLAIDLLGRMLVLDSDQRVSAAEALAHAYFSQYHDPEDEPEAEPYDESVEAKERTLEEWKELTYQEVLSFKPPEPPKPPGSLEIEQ

In the case of `O=C1c2ccc(Nc3ccc(F)cc3F)cc2CCc2ccc(OC[C@H](O)CO)cc21` [Compound 12a, reference compound], the IC50 in data set [1] is 5 nM; in data set [2] it was 19.2 ± 0.9 nM.

Compound `Cc1cc(OC[C@H](O)CO)cc2c1CCc1cc(Nc3ccc(F)cc3F)ccc1C2=O` [Compound 12b] showed a melting point of 135.1 to 135.8 °C. Besides, in data set [2], the half-maximal inhibitory concentration (IC50) turned out to be 14.5 ± 0.3 nM.

In the case of `O=C1c2ccc(Nc3ccc(F)cc3F)cc2CCc2ccc(OC[C@@H](O)CO)cc21` [Compound 12c], the IC50 in data set [2] was determined as 32 ± 0.6 nM.

In the case of `O=C1c2ccc(Nc3ccc(F)cc3F)cc2CCc2ccc(OCCCO)cc21` [Compound 12d], the IC50 in data set [2] worked out at 25.9 ± 0.7 nM.

As for `Cc1cc(OCCCO)cc2c1CCc1cc(Nc3ccc(F)cc3F)ccc1C2=O` [Compound 12e], the melting point is 127.2 to 127.7 °C. The IC50 in data set [2] amounted to 16.4 ± 0.6 nM.

On to `COC(=O)CCCOc1ccc2c(c1)C(=O)c1ccc(Nc3ccc(F)cc3F)cc1CC2` [Compound 12f], for which the melting point lay within 124.6 to 125 °C. In addition, the “decrease in potency against MAPK11 relative to 13a” value in data set [2] (ester 12f vs carboxylic acid 13a) was “about 10 fold”. Further, the IC50 in data set [2] was 61 ± 2.1 nM.

Regarding `O=C(O)CCCOc1ccc2c(c1)C(=O)c1ccc(Nc3ccc(F)cc3F)cc1CC2` [Compound 13a], the 50% inhibitory concentration (IC50) in data set [2] was found to be 6.4 ± 0.6 nM. Moreover, in data set [2] (ratio of IC50 values vs 12a), the “fold more potent than 12a (skepinone-L) against MAPK11” value turned out to be 3 fold.

The compound `Cc1cc(OCCCC(=O)O)cc2c1CCc1cc(Nc3ccc(F)cc3F)ccc1C2=O` [Compound 13b, 4-((8-((2,4-difluorophenyl)amino)-1-methyl-5-oxo-10,11-dihydro-5H-dibenzo [a,d][7]annulen-3-yl)oxy)butanoic acid] had a melting point of 120.4 to 120.6 °C. In data set [2], the concentration for half-maximal inhibition (IC50) is 4.2 ± 0.1 nM.

With `O=C1c2ccc(Nc3ccc(F)cc3F)cc2CCc2ccc(OC3CC(C(=O)O)C3)cc21` (stereo not drawn) [Compound 13c], the melting point lay in the range of 145.3 to 145.9 °C. Also, in data set [2], the IC50 stood at 14.3 ± 0.6 nM.

On to `NC(=O)CCCOc1ccc2c(c1)C(=O)c1ccc(Nc3ccc(F)cc3F)cc1CC2` [Compound 14a], for which the IC50 in data set [2] was 8.4 ± 0.1 nM.

In the case of `O=S(=O)(c1ccc(Nc2ccc(F)cc2F)cc1)c1cccc(OC[C@H](O)CO)c1` [Compound 23b], the melting point was 135.9 to 136.6 °C. Further, in data set [2], the concentration for half-maximal inhibition (IC50) is > 10000 nM.

As for `O=S(=O)(c1ccc(Nc2ccc(F)cc2F)cc1)c1cccc(OC[C@@H](O)CO)c1` [Compound 23c], the melting point was 136.3 to 136.7 °C. The concentration for half-maximal inhibition (IC50) in data set [2] was > 10000 nM.

For `COC(=O)CCCOc1cccc(S(=O)(=O)c2ccc(Nc3ccc(F)cc3F)cc2)c1` [Compound 23d], the melting point lay within 126.8 to 127.4 °C.

Turning to `O=C(O)CCCOc1cccc([S+]([O-])c2ccc(Nc3ccc(F)cc3F)cc2)c1` (stereo not drawn) [Compound 25], in data set [2], the “decrease in potency against MAPK11 compared to dibenzocycloheptanone compounds” value was “more than a hundred-fold decrease” and the IC50 worked out at 2550 ± 682 nM.

Compound `O=C(O)CCCOc1cccc(S(=O)(=O)c2ccc(Nc3ccc(F)cc3F)cc2)c1` [Compound 26] displayed a melting point of 132.6 to 133.1 °C. The half-maximal inhibitory concentration (IC50) in data set [2] is > 10000 nM.

As for `CC(C)(C)Cn1c(N)nc2ccc(-c3[nH]c(C(C)(C)C)nc3-c3ccc(F)cc3)nc21` [LY2228820], the concentration for half-maximal inhibition (IC50) in data set [1] (Figure 1) is 5.3 nM.

Regarding `Oc1ccc(-c2nc(-c3ccncc3)c(-c3ccc(F)cc3)[nH]2)cc1` [SB202190], the IC50 in data set [1] (Figure 1) is […].

On to `O=c1ncn2nc(Sc3ccc(F)cc3F)ccc2c1-c1c(Cl)cccc1Cl` [VX-745], for which the half-inhibitory concentration (IC50) in data set [1] (Figure 1) was […].
